Experimental data from US10435396B2, “2-substituted indazoles, methods for producing same, pharmaceutical preparations that contain same, and use of same to produce drugs” (Bayer Pharma Aktiengesellschaft, priority 2016, dated 2019).
pIC50: −log10 of the molar value.

Assays:
human IRAK4 = human IRAK4 (Homo sapiens (Human), UniProt Q9NWZ3); assay: IRAK4 kinase assay (IRAK4 TR-FRET assay); assay type: biochemical; details: 1 mM ATP
Experimental: The IRAK4-inhibitory activity of the substances according to the invention was measured in the IRAK4 TR-FRET assay (TR-FRET=Time Resolved Fluorescence Resonance Energy Transfer) described hereinafter.
Recombinant fusion protein from N-terminal GST (glutathione S-transferase) and human IRAK4, expressed in baculovirus-infected insect cells (Hi5, BTI-TN-5B1-4, cell line purchased from Invitrogen, catalogue No. B855-02) and purified via affinity chromatography, was used as enzyme. The substrate used for the kinase reaction was the biotinylated peptide biotin-Ahx-[…] (C-terminus in amide form) which can be purchased, for example, from Biosyntan GmbH (Berlin-Buch).
For the assay, 11 different concentrations in the range from 20 μM to 0.073 nM were prepared from a 2 mM solution of the test substance in DMSO. 50 nl of the respective solution were pipetted into a black low-volume 384-well microtitre plate (Greiner Bio-One, Frickenhausen, Germany), 2 μl of a solution of IRAK4 in assay buffer [50 mM HEPES pH 7.5, 5 mM MgCl2, 1.0 mM dithiothreitol, 30 μM activated sodium orthovanadate, 0.1% (w/v) of bovine gamma-globulin (BGG) 0.04% (v/v) nonidet-P40 (Sigma)] were added and the mixture was incubated for 15 min to allow prebinding of the substances to the enzyme prior to the kinase reaction. The kinase reaction was then started by addition of 3 μl of a solution of adenosine triphosphate (ATP, 1.67 mM=final concentration in 5 μl of assay volume: 1 mM) and peptide substrate (0.83 μM=final concentration in 5 μl assay volume: 0.5 μM) in assay buffer, and the resulting mixture was incubated at 22° C. for the reaction time of 45 min. The concentration of the IRAK4 was adjusted to the respective activity of the enzyme and set such that the assay was carried out in the linear range. Typical concentrations were in the order of about 0.2 nM. The reaction was stopped by addition of 5 μl of a solution of TR-FRET detection reagents [0.1 μM streptavidin-XL665 (Cisbio Bioassays; France, catalogue No. 610SAXLG)] and 1.5 nM anti-phosphoserine antibody [Merck Millipore, “STK Antibody”, catalogue No. 35-002] and 0.6 nM LANCE EU-W1024-labelled anti-mouse-IgG antibody (Perkin-Elmer, product No. AD0077; alternatively, it is possible to use a terbium cryptate-labelled anti-mouse-IgG antibody from Cisbio Bioassays) in aqueous EDTA solution (100 mM EDTA, 0.4% [w/v] bovine serum albumin [BSA] in 25 mM HEPES pH 7.5).
The resulting mixture was incubated at 22° C. for 1 h to allow formation of a complex of the biotinylated phosphorylated substrate and the detection reagents. The amount of the phosphorylated substrate was then evaluated by measuring the resonance energy transfer from europium chelate-labelled anti-mouse-IgG antibody to streptavidin-XL665. To this end, the fluorescence emissions at 620 nm and 665 nm were measured after excitation at 350 nm in a TR-FRET measuring instrument, for example a Rubystar (BMG Labtechnologies, Offenburg, Germany) or a Viewlux (Perkin-Elmer). The ratio of the emissions at 665 nm and 622 nm was taken as a measure of the amount of phosphorylated substrate. The data were normalized (enzyme reaction without test substance=0% inhibition; all other assay components but no enzyme=100% inhibition). Typically, the test substances were tested on the same microtitre plates at 11 different concentrations in the range from 20 μM to 0.073 nM (20 μM, 5.7 μM, 1.6 μM, 0.47 μM, 0.13 μM, 38 nM, 11 nM, 3.1 nM, 0.89 nM, 0.25 nM and 0.073 nM). The dilution series were prepared prior to the assay (2 mM to 7.3 nM in 100% DMSO) by serial dilutions. The IC50 values were calculated using a 4-parameter fit.

human PBMCs = assay: In vitro LPS-induced cytokine production in human PBMCs; assay type: cell-based; details: 0.1 μg/ml LPS, 24 hours
Experimental: In Vitro LPS (Lipopolysaccharide)-Induced Cytokine Production in Human PBMCs (Peripheral Blood Mononuclear Cells)
The effect of the inventive compounds of the general formula (I) on induced cytokine production in human PBMCs was examined. Cytokine production was induced here by LPS, a TLR4 ligand, which leads to activation of the IRAK4-mediated signal path.
The human PBMCs were obtained from anti-coagulated human whole blood. To this end, 15 ml of Ficoll-Paque (Biochrom, Cat. No. L6115) were initially charged in Leucosep tubes and 20 ml of human blood were added. After centrifugation of the blood at 800 g for 15 min at room temperature, the plasma including the platelets was removed and discarded. The PBMCs were transferred into centrifugation tubes and made up with PBS (phosphate-buffered saline) (Gibco, Cat. No. 14190). The cell suspension was centrifuged at room temperature at 250 g for 10 min and the supernatant was discarded. The PBMCs were resuspended in complete medium (RPMI 1640, without L-glutamine (PAA, Cat. No. E15-039), 10% FCS; 50 U/ml penicillin, 50 μg/ml streptomycin (PAA, Cat. No. P11-010) and 1% L-glutamine (Sigma, Cat. No. G7513)).
The assay was also carried out in complete medium. The PBMCs were sown in 96-well plates at a cell density of 2.5×10^5 cells/well. The compounds according to the invention were subjected to serial dilution in a constant volume of 100% DMSO and used in the assay at 8 different concentrations in the range from 10 μM to 3 nM such that the final DMSO concentration was 0.4% DMSO. Prior to the actual stimulation, the cells were then pre-incubated therewith for 30 min. […] Cell viability was determined using the CellTiter-Glo luminescent assay (Promega, Cat. No. G7571 (G755/G756A)) in accordance with the manufacturer's instructions. The amount of secreted TNF-α in the cell culture supernatant was determined using the Human ProInflammatory 9-Plex Tissue Culture Kit (MSD, Cat. No. K15007B) in accordance with the instructions of the manufacturer. […]

Sequence of human IRAK4 (Q9NWZ3 whole entry): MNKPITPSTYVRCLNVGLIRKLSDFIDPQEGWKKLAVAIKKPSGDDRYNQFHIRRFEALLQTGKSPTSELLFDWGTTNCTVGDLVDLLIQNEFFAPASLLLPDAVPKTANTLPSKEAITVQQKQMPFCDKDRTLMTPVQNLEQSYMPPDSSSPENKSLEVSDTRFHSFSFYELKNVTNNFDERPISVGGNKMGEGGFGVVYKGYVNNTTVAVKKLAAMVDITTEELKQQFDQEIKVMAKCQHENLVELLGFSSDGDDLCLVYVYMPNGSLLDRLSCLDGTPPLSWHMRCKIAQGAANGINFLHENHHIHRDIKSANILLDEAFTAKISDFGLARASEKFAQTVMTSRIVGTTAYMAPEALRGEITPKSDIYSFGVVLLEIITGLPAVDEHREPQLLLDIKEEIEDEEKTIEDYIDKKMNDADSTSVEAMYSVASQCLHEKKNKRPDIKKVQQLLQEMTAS

pIC50 (human IRAK4): 9.00
SMILES: COc1cc2nn(C3CCN(CCC(C)(C)O)CC3)cc2cc1NC(=O)c1cccc(C(F)(F)F)n1 [Example 52, N-{2-[1-(3-Hydroxy-3-methylbutyl)piperidin-4-yl]-6-methoxy-2H-indazol-5-yl}-6-(trifluoromethyl)pyridine-2-carboxamide]
activity (secreted TNF-α, LPS-induced cytokine production in human PBMCs) (human PBMCs): ≤ 1 µM
